Laboratory results: patent publication US12303471B2, “Methods of treatment of temozolomide-resistant glioma using coenzyme Q10” (BPGbio, Inc., priority 2015, dated 2025)

Experiments:
MDA-MB231 cells [1] = test: CellTiter-Fluor viability assay, co-treatment with Coenzyme Q10 and Complex II inhibitors; conditions: 5 μM Atpenin A5 with 0-1600 μM Coenzyme Q10, 72 h; FIG. 4
Experimental: To assess whether the effects of Coenzyme Q10 on Complex II-mediated respiration are functionally linked to Coenzyme Q10-induced cytotoxicity, MDA-MB231 cells were co-treated with two inhibitors of Complex II (atpenin A5 and malonate) which act at separate sites in Complex II.
The viability of MDA-MB231 cells treated with atpenin A5 and Coenzyme Q10 or malonate and Coenzyme Q10 was determined by a CellTiter-Fluor viability assay (Promega, Cat. No. G6080). Briefly, cells were co-treated with 0, 25, 50, 100, 200, 400, 800 or 1600 μM Coenzyme Q10 and either 5 μM Atpenin A5 or 5 mM malonic acid for 72 h, and then assayed per the manufacture's protocol.

MDA-MB231 cells [2] = test: Propidium iodide (PI) and Annexin V flow cytometry cell death assay; assay type: cell-based; conditions: malonate 5 mM with Coenzyme Q10 155 μM or 310 μM, 72 hours; FIG. 5
Experimental: MDA-MB231 cells were treated with Coenzyme Q10 and/or malonate as shown below: • 1. Untreated • 2. Malonate (5 mM) • 3.
At 72 hours post treatment, cell culture supernatant (containing detached apoptotic cells) and adherent cells were harvested by trypsinization, centrifuged at 500 g for 5 minutes, and the resulting pellets were washed in staining media (PBS, 0.5% FBS). Cells were co-stained with FITC conjugated anti-Annexin-V (1:100, Molecular Probes) to detect PS exposure on the outer membrane surface and Propidium Iodine (PI, 1:2500, Molecular Probes) in 200 μL binding buffer (Molecular Probes). After a 15 minute incubation in the dark, the percentage of Annexin V+/PI+ cells was analyzed using an Accuri C6 Flow Cytometer (BD Biosciences) and samples were run within one hour after staining.
The cells were rated as follows: • 1. PI-negative and Annexin V-negative: viable • 2. PI-negative and Annexin V-positive: early apoptosis • 3. PI-positive and Annexin V-positive: late apoptosis • 4. PI-positive and Annexin V-negative: dead.

[3] = tested on: recurrent high-grade gliomas; conditions: patients with recurrent high-grade gliomas; cited from earlier work
[4] = tested on: human U373 cells (TMZ-sensitive and TMZ-resistant GBM cells); test: TMZ-sensitive and TMZ-resistant U373 glioblastoma tumors in mice; assay type: in vivo; conditions: intravenous single daily dose of 4% Coenzyme Q10, 50 mg/kg/day
Source text: Equal numbers (1×10^7) of human U373 cells left untreated and thus sensitive (TMZ-sensitive) versus TMZ long-term treated (TMZ-resistant) GBM cells (see Calve et al., 2010, Neoplasia 12(9): 727-739, which is incorporated by reference herein in its entirety) are suspended in MATRIGEL® and injected into mice. Tumors are allowed to develop, and treatment is not initiated unless tumors are present.
Mice having tumors are randomized into 4 groups of 30 mice each as follows: • i. Group 1—No treatment, TMZ-sensitive • ii. Group 2—No treatment, TMZ-resistant • iii. Group 3—Intravenous single daily dose of 4% Coenzyme Q10, 50 mg/kg/day, TMZ-sensitive • iv. Group 4—Intravenous single daily dose of 4% Coenzyme Q10, 50 mg/kg/day, TMZ-resistant
Animals are observed for viability and tumor growth is monitored. Animal survival results are collected through day 400.

Rat C6 glioma cells = test: Rat model of glioma (C6 glioma cell implantation); assay type: in vivo, Sprague-Dawley rats
Experimental: The C6 glioma cells develop into a glioma-like tumor. The rats bearing C6 gliomas were treated twice per day with 5, 10, 25 or 50 mg/kg Coenzyme Q10 by intraperitoneal or subcutaneous injection. Coenzyme Q10 treatment was initiated 1 day (n=3), 4 days (n=14), or 8 days (n=3) after implantation of C6 glioma cells. Coenzyme Q10 treatment was continued twice daily until the rat died, or until 34 days after implantation of glioma cells. […] Four of the rats treated with Coenzyme Q10 survived for at least 50 days after implantation of the C6 glioma cells, while none of the untreated control rats survived more than 15 days after implantation. In fact, two of the rats treated with Coenzyme Q10 survived more than 100 days post implantation (see below and FIGS. 9 and 10). Of the four rats that were alive at Day 50, 1 received 10 mg/kg Coenzyme Q10 starting 4 days after implantation, and 3 received 50 mg/kg Coenzyme Q10 starting 4 days or 8 days after implantation.
Enlarged ventricles (hydrocephalus) were present 27 days post C6 implantation (FIG. 9A). At 34 days post-implantation, enlarged ventricles were stilled observed. In addition, there was a complex mass in the tumor area which was not clearly growing (FIG. 9B). Coenzyme Q10 treatment was discontinued at Day 34. […] At 27 days post C6 implantation, a complex mass was visible, but it was unclear if this mass represented a tumor or a scar (FIG. 10A). At 34 days post C6 implantation, a scar was visible at the site of implantation and improvement in the overall condition of the rat was observed that was not consistent with tumor growth (FIG. 10B).

[5] = tested on: mutant K-Ras-driven pancreatic cancer cell line MIA PaCa-2; test: Coenzyme Q10 sensitivity (IC50/IC90) of MIA PaCa-2 cells; assay type: cell-based; conditions: Homo sapiens
Experimental: (§1) Oxygen consumption rate (OCR) was measured during various states of succinate-fueled mitochondrial respiration in the triple-negative breast cancer cell line MDA-MB231 and the mutant K-Ras-driven pancreatic cancer cell line MIA PaCa-2 treated with different concentrations of Coenzyme Q10. […] The assays were performed in permeabilized adherent cells using the Seahorse XF96 Analyzer. Cells were permeabilized with XF PMP reagent and put into mitochondrial State 3 by replacing the growth media with Mitochondrial Assay Solution (containing mannitol, sucrose, KH2PO4, MgCl2, HEPES, and EGTA) supplemented with succinate, rotenone (to block reverse electron transfer back to Complex I), and ADP. OCR was measured in State 3, and then again upon sequential injection of oligomycin and FCCP to induce State 4o (o=oligomycin) and State 3u (u=uncoupled).

MIA PaCa-2 = test: Oxygen consumption rate during succinate-fueled mitochondrial respiration, permeabilized cells, Seahorse XF96; assay type: cell-based; conditions: 100, 137 or 274 μM Coenzyme Q10, State 3, State 4o, State 3u, FIG. 1
Experimental: as §1

MDA-MB231 = test: as above; assay type: cell-based; conditions: 100, 155 or 310 μM Coenzyme Q10, State 3, State 4o, State 3u, FIG. 1
Experimental: as §1

[6] = tested on: TMZ-resistant glioblastoma; test: Coenzyme Q10 in TMZ-resistant glioblastoma in humans; assay type: in vivo; conditions: 4% coenzyme Q10 nanosuspension, 24-, 48- or 96-hour infusion, monotherapy
Experimental: The efficacy of Coenzyme Q10 in treating TMZ-resistant glioblastoma is evaluated in humans using Coenzyme Q10 monotherapy and Coenzyme Q10 in combination with chemotherapy. The Coenzyme Q10 is provided as a 4% coenzyme Q10 nanosuspension formulation as described in WO 2011/112900, the entire contents of which are expressly incorporated herein by reference. The study is designed with dosing schedules of a 24-hour infusion, 48-hour infusion, or 96-hour continuous infusion. This extended dosage schedule is intended to decrease Coenzyme Q10 Cmax values and maintain steady-state levels. Patient survival time and glioblastoma tumor status before, during, and after Coenzyme Q10 treatment is evaluated.

[7] = Coenzyme Q10 plasma levels in rats; assay type: in vivo; conditions: four days after treatment initiated
Experimental: Coenzyme Q10 plasma levels were measured in the rats bearing C6 gliomas four days after Coenzyme Q10 treatment was initiated.

[8] = tested on: triple-negative breast cancer cell line MDA-MB231; test: Coenzyme Q10 sensitivity (IC50/IC90) of MDA-MB231 cells; assay type: cell-based; conditions: Homo sapiens, MDA-MB-231
Experimental: as §1

Compound: COc1[nH]c(=O)c(C(=O)[C@@H](C)C[C@H](C)[C@@H](Cl)CCl)c(O)c1OC [atpenin A5]
- effect of co-treatment on Coenzyme Q10-induced cytotoxicity (MDA-MB231 cells [1]): enhanced cytotoxicity

Compound: O=C(O)CC(=O)O [malonate]
- effect on Coenzyme Q10-induced cell death (MDA-MB231 cells [2]): attenuated Coenzyme Q10-induced cell death

Compound: Bevacizumab: monoclonal antibody against vascular endothelial growth factor (VEGF)
- overall median survival [3]: improved overall median survival
- response rates [3]: 32-62%

Compound: COC1=C(OC)C(=O)C(CC=C(C)CCC=C(C)CCC=C(C)CCC=C(C)CCC=C(C)CCC=C(C)CCC=C(C)CCC=C(C)CCC=C(C)CCC=C(C)C)=C(C)C1=O [Coenzyme Q10, 2-(3,7,11,15,19,23,27,31,35,39-decamethyltetraconta-2,6,10,14,18,22,26,30,34,38-decaenyl)-5,6-dimethoxy-3-methyl-cyclohexa-2,5-diene-1,4-dione]
- glioblastoma tumor growth compared to control (untreated) animals [4]: significantly reduced glioblastoma tumor growth
- survival compared to control (untreated) animals ([4]; through day 400): significantly increased survival
- condition of surviving rat, coronal sections (Rat C6 glioma cells; 10 mg/kg twice daily i.p. from day 4, discontinued Day 34, 103 days post-implantation, FIG. 9C): appeared normal with possible scar tissue in the tumor area
- rats alive at Day 50 (Rat C6 glioma cells; 10 mg/kg twice daily, starting 4 days after implantation): 1
- condition of surviving rat, coronal sections (Rat C6 glioma cells; 50 mg/kg twice daily i.p. from day 4, 103 days after C6 implantation, FIG. 10C): clinically normal
- rats alive at Day 50 (Rat C6 glioma cells; 50 mg/kg twice daily, starting 4 days or 8 days after implantation): 3
- rats that survived for at least 50 days after implantation of the C6 glioma cells (Rat C6 glioma cells; 5, 10, 25 or 50 mg/kg twice per day intraperitoneal, n=20, no untreated control (n=33) survived more than 15 days): Four
- rats that survived more than 100 days post implantation (Rat C6 glioma cells; Coenzyme Q10 twice daily intraperitoneal, n=20): two
- IC50 [5]: 137 µM
- IC90 [5]: 274 µM
- succinate-fueled respiration (oxygen consumption rate) (MIA PaCa-2): significantly decreased by Coenzyme Q10 in a dose dependent manner
- succinate-fueled respiration (oxygen consumption rate) (MDA-MB231): significantly decreased by Coenzyme Q10 in a dose dependent manner
- tumor growth relative to standard chemotherapy [6]: reduce tumor growth
- dose that resulted in the highest Coenzyme Q10 plasma levels ([7]; 5, 10, 25 or 50 mg/kg twice daily intraperitoneal, FIG. 12): 25 mg/kg
- Coenzyme Q10 plasma levels, intraperitoneal compared to subcutaneous injection ([7]; rats bearing C6 gliomas, 50 mg/kg twice daily, FIG. 11): significantly higher
- IC50 [8]: 155 µM
- IC90 [8]: 310 µM
